Measurements taken from the NIST ThermoML archive (doi:10.1016/j.jct.2016.08.002).

Legend:
[1] = Molar enthalpy of transition or fusion; details: Crystal; DSC
[2] = for vapor or sublimation pressure: Transpiration method; for Normal melting temperature: DTA

NC(=O)c1cccnc1 [3-pyridinecarboxamide]
Details	Molar enthalpy of transition or fusion [kcal/mol]
[1]	5.71

[2], Crystal
Details	vapor or sublimation pressure [kPa]
353.2 K	0.00036
358.3 K	0.0006
363.4 K	0.00104
363.5 K	0.00105
370.6 K	0.00207
378.6 K	0.00436
383.8 K	0.0069
388.8 K	0.01096
394.9 K	0.01844
398.9 K	0.02467

Details	Normal melting temperature [°C]
[2], Crystal	130.1

NC(=O)c1ccncc1 [4-pyridinecarboxamide]
Details	Molar enthalpy of transition or fusion [kcal/mol]
[1]	5.52

[2], Crystal
Details	vapor or sublimation pressure [kPa]
358.2 K	0.00043
363.3 K	0.00072
368.4 K	0.00117
373.4 K	0.0019
373.5 K	0.00191
378.5 K	0.00296
383.7 K	0.00472
388.7 K	0.00724
393.8 K	0.01115
398.8 K	0.01672
404 K	0.02482
409 K	0.03719

Details	Normal melting temperature [°C]
[2], Crystal	155.2

NC(=O)c1ccccn1 [2-pyridinecarboxamide]
Details	Molar enthalpy of transition or fusion [kcal/mol]
[1]	4.59

[2]
Details	vapor or sublimation pressure [kPa]
343 K, Crystal	0.0079
348 K, Crystal	0.0125
353.1 K, Crystal	0.0192
353.2 K, Crystal	0.0194
358.2 K, Crystal	0.0302
363.3 K, Crystal	0.0459
368.3 K, Crystal	0.0687
373.3 K, Crystal	0.1028
385.4 K, Liquid	0.2394
390.4 K, Liquid	0.3199
395.5 K, Liquid	0.416
400.6 K, Liquid	0.5427
405.6 K, Liquid	0.7049
410.7 K, Liquid	0.9324
415.8 K, Liquid	1.202

Details	Normal melting temperature [°C]
[2], Crystal	106.4
